From US6391827B1, “Pyrrolic compounds having a high herbicidal activity and their agronomic use” (Isagro Ricerca S.r.l., priority 1999, dated 2002)

Columns and labels:
Type in all cases: in vivo
Parameters in all cases: key: 0=0-20% of damage; 1=21-40%; 2=41-60%; 3=61-80%; 4=81-95%; 5=death of the plant treated
Conditions in all cases: 150 g/hectare, evaluated 21 days after treatment, damage vs blank
Portulaca oleracea (PO) = experiment: Herbicidal activity in post-emergence, Portulaca oleracea
Experimental: (§1) The herbicidal activity of the compounds of the invention was evaluated with respect to both monocotyledon and dicotyledon weeds, in post- and pre-emergence treatment.
(§2) The evaluation tests were carried out according to the following operative procedures.
(§3) Vases (diameter over 10 cm, height 10 cm) containing sandy medium were prepared. One of the following weeds was planted in each of them: Abutilon theofrasti (AT), Amarantus retraflexus (AR), Chenopodium album (CA), Convolvulus sepium (CS), Portulaca oleracea (PO), Solanum nigrum (SN), Ipomea purpurea (IP).
(§4) Water was added to each vase in a suitable quantity for a good germination of the seeds. The vases were divided into two groups, each group containing at least 5 vases for each weed.
(§5) The first group was not treated with herbicide and was used as a comparison (blank).
(§6) The second group of vases was treated fifteen days after sowing (i.e. when the small weed plants, depending on the species, were 10-15 cm high) with a hydroacetone dispersion at 20% by volume of acetone of the product to be evaluated (herbicidal activity in post-emergence). All the vases were kept under observation in a conditioned environment under the following environmental conditions:
(§7) light intensity: 10000 lux
(§8) Every two days, the vases were uniformly watered to ensure a sufficient degree of humidity for a good development of the plants.
(§9) 21 days after treatment, the herbicidal activity was evaluated on the basis of the following scale of values referring to the percentage of damage measured on the treated plants with respect to those not treated (blank): […]

Convolvulus sepium (CS) = experiment: Herbicidal activity in post-emergence, Convolvulus sepium
Experimental: as §1, §2, §3, §4, §5, §6, §7, §8, §9

Solanum nigrum (SN) = experiment: Herbicidal activity in post-emergence, Solanum nigrum
Experimental: as §1, §2, §3, §4, §5, §6, §7, §8, §9

[1] = tested on: Amarantus retraflexus (AR); experiment: Herbicidal activity in post-emergence, Amarantus retraflexus
Experimental: as §1, §2, §3, §4, §5, §6, §7, §8, §9

Chenopodium album (CA) = experiment: Herbicidal activity in post-emergence, Chenopodium album
Experimental: as §1, §2, §3, §4, §5, §6, §7, §8, §9

Ipomea purpurea (IP) = experiment: Herbicidal activity in post-emergence, Ipomea purpurea
Experimental: as §1, §2, §3, §4, §5, §6, §7, §8, §9

Abutilon theofrasti (AT) = experiment: Herbicidal activity in post-emergence, Abutilon theofrasti
Experimental: as §1, §2, §3, §4, §5, §6, §7, §8, §9

CCOC(=O)COc1cc(-c2c(Br)c(C(F)(F)F)n(C)c2Br)c(F)cc1Cl [Compound 4, ethyl 2-chloro-5-(2,4-dibromo-1-methyl-5-trifluoromethylpyrrol-3-yl)-4-fluorophenoxy acetate]
5: Herbicidal activity in post-emerqence, PO (Portulaca oleracea (PO)) | Herbicidal activity in post-emerqence, CS (Convolvulus sepium (CS)) | Herbicidal activity in post-emerqence, SN (Solanum nigrum (SN)) | Herbicidal activity in post-emerqence, AR [1] | Herbicidal activity in post-emerqence, CA (Chenopodium album (CA)) | Herbicidal activity in post-emerqence, IP (Ipomea purpurea (IP)) | Herbicidal activity in post-emerqence, AT (Abutilon theofrasti (AT))

CCOC(=O)COc1cc(-c2c(Br)c(C(F)(F)F)n(C)c2Cl)c(F)cc1Cl [Compound 18, ethyl-5-(4-bromo-2-chloro-1-methyl-5-trifluoromethylpyrrol-3-yl)-2-chloro-4-fluorophenoxyacetate]
5: Herbicidal activity in post-emerqence, PO (Portulaca oleracea (PO)) | Herbicidal activity in post-emerqence, CS (Convolvulus sepium (CS)) | Herbicidal activity in post-emerqence, SN (Solanum nigrum (SN)) | Herbicidal activity in post-emerqence, AR [1] | Herbicidal activity in post-emerqence, CA (Chenopodium album (CA)) | Herbicidal activity in post-emerqence, IP (Ipomea purpurea (IP)) | Herbicidal activity in post-emerqence, AT (Abutilon theofrasti (AT))

C#CCOc1cc(-c2c(Br)c(C(F)(F)F)n(C)c2Br)c(F)cc1Cl [Compound 5, 3-[4-chloro-2-fluoro-5-(2-propinyloxy)phenyl]-2,4-dibromo-1-methyl-5-trifluoromethylpyrrole]
5: Herbicidal activity in post-emerqence, PO (Portulaca oleracea (PO)) | Herbicidal activity in post-emerqence, CS (Convolvulus sepium (CS)) | Herbicidal activity in post-emerqence, SN (Solanum nigrum (SN)) | Herbicidal activity in post-emerqence, AR [1] | Herbicidal activity in post-emerqence, CA (Chenopodium album (CA)) | Herbicidal activity in post-emerqence, IP (Ipomea purpurea (IP)) | Herbicidal activity in post-emerqence, AT (Abutilon theofrasti (AT))

C#CCOc1cc(-c2c(Cl)c(C(F)(F)F)n(C)c2Cl)c(F)cc1Cl [Compound 14, 3-[4-chloro-2-fluoro-5-(2-propinyloxy)phenyl]-2,4-dichloro-1-methyl-5-trifluoromethyl pyrrole]
5: Herbicidal activity in post-emerqence, PO (Portulaca oleracea (PO)) | Herbicidal activity in post-emerqence, CS (Convolvulus sepium (CS)) | Herbicidal activity in post-emerqence, SN (Solanum nigrum (SN)) | Herbicidal activity in post-emerqence, AR [1] | Herbicidal activity in post-emerqence, CA (Chenopodium album (CA)) | Herbicidal activity in post-emerqence, IP (Ipomea purpurea (IP)) | Herbicidal activity in post-emerqence, AT (Abutilon theofrasti (AT))

CCOC(=O)COc1cc(-c2c(Cl)c(C(F)(F)F)n(C)c2Cl)c(F)cc1Cl [Compound 15, ethyl [2-chloro-5-(2,4-dichloro-1-methyl-5-trifluoro methylpyrrol-3-yl)-4-fluorophenoxy]acetate]
5: Herbicidal activity in post-emerqence, PO (Portulaca oleracea (PO)) | Herbicidal activity in post-emerqence, CS (Convolvulus sepium (CS)) | Herbicidal activity in post-emerqence, SN (Solanum nigrum (SN)) | Herbicidal activity in post-emerqence, AR [1] | Herbicidal activity in post-emerqence, CA (Chenopodium album (CA)) | Herbicidal activity in post-emerqence, IP (Ipomea purpurea (IP)) | Herbicidal activity in post-emerqence, AT (Abutilon theofrasti (AT))

C#CCOc1cc(-c2c(Br)c(C(F)(F)F)n(C)c2Cl)c(F)cc1Cl [Compound 17, 4-bromo-3-[4-chloro-2-fluoro-5-(2-propinyloxy)phenyl]-2-chloro-1-methyl-5-trifluoromethyl pyrrole]
5: Herbicidal activity in post-emerqence, PO (Portulaca oleracea (PO)) | Herbicidal activity in post-emerqence, CS (Convolvulus sepium (CS)) | Herbicidal activity in post-emerqence, SN (Solanum nigrum (SN)) | Herbicidal activity in post-emerqence, AR [1] | Herbicidal activity in post-emerqence, CA (Chenopodium album (CA)) | Herbicidal activity in post-emerqence, IP (Ipomea purpurea (IP)) | Herbicidal activity in post-emerqence, AT (Abutilon theofrasti (AT))
